According to patent publication US20260108546A1 (ELI LILLY AND COMPANY, priority 2024, published 2026):

Target: T1, hGIP-R (Homo sapiens, UniProt P48546)
T1 construct: expressed in transfected cells; host or cells: HEK-293 clonal cell lines
T1 sequence (P48546 22-466): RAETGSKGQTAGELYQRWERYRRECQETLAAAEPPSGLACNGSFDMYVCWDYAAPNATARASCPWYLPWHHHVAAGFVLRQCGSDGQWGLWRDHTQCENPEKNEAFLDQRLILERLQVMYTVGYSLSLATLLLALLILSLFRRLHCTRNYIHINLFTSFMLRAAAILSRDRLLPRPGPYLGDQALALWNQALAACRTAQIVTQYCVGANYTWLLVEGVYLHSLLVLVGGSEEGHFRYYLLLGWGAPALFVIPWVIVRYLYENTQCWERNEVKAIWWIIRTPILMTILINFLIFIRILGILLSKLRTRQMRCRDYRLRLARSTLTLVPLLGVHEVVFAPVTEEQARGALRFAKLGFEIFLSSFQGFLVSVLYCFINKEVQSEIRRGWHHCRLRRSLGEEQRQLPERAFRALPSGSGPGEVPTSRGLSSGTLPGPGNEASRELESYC
Assay: Functional hGIP-R Assay (cAMP formation, HTRF)
Assay type: cell-based
Details: for Emax: cAMP efficacy, percent of maximal response to GIP(1-42)OH, 37° C., 0.1% bovine casein, arithmetic mean ± SEM; for EC50: cAMP potency, HEK-293 cells expressing hGIP-R, incubated at 37° C. in the presence of 0.1% bovine casein, geometric mean, read-out: Human GIP-R EC50, nM (SEM, n)
Procedure, shortened: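 HEK-293 cells expressing hGIP-R were given a 20-point compound series in DMEM with 0.1% casein, 250 μM IBMX, 1% DMSO, 30 min at 37 °C. cAMP was read by HTRF against a standard curve, expressed as % of human GIP (1-42) OH maximum; EC50 and Emax came from four-parameter fits.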

Row | SMILES | Emax [%] | EC50 [nM]
1 | Cn1cc2cc(-c3ccc([C@H]4C[C@@]45CCN([C@H](Cc4cnn(C(F)F)c4)C(=O)NC(C)(C)Cn4nc(C(F)(F)F)cc4-c4ccc(=O)n(C)c4)C5=O)cc3)cnc2n1 [Example 63, (R)-3-(1-(Difluoromethyl)-1H-pyrazol-4-yl)-N-(2-methyl-1-(5-(1-methyl-6-oxo-1,6-dihydropyridin-3-yl)-3-(trifluoromethyl)-1H-pyrazol-1-yl)propan-2-yl)-2-((1R,3R)-1-(4-(2-methyl-2H-pyrazolo[3,4-b]pyridin-5-yl)phenyl)-4-oxo-5-azaspiro[2.4]heptan-5-yl)propanamide] | 62.1 ± 3.55 | 21.6
2 | Cn1cc(C[C@@H](NC(=O)[C@H]2C[C@@H]2c2ccc(-c3cnc4nn(C)cc4c3)cc2)C(=O)NC(C)(C)Cn2nc(C(F)(F)F)cc2-c2n[nH]cc2F)cn1 [Example 14, (1S,2S)-N-((R)-1-((1-(4-Fluoro-5′-(trifluoromethyl)-1H,2′H-[3,3′-bipyrazol]-2′-yl)-2-methylpropan-2-yl)amino)-3-(1-methyl-1H-pyrazol-4-yl)-1-oxopropan-2-yl)-2-(4-(2-methyl-2H-pyrazolo[3,4-b]pyridin-5-yl)phenyl) cyclopropane-1-carboxamide] | 103 ± 10.2 | 87.7
3 | [2H]C([2H])([2H])n1cc(C[C@H](C(=O)NC(C)(C)Cn2nc(C(F)(F)F)cc2-c2ccc(C(C)(C)O)nc2)N2CC[C@@]3(C[C@@H]3c3ccc(-c4cnc5nn(C6CC6)cc5c4)nc3C)C2=O)cn1 [Example 190, (R)-2-((1R,3R)-1-(6-(2-cyclopropyl-2H-pyrazolo[3,4-b]pyridin-5-yl)-2-methylpyridin-3-yl)-4-oxo-5-azaspiro[2.4]heptan-5-yl)-N-(1-(5-(6-(2-hydroxypropan-2-yl)pyridin-3-yl)-3-(trifluoromethyl)-1H-pyrazol-1-yl)-2-methylpropan-2-yl)-3-(1-(methyl-d3)-1H-pyrazol-4-yl)propanamide] | 80.2 ± 6.78 | 1.12
4 | Cc1cn2cc(-c3ccc([C@H]4C[C@@H]4C(=O)N(C)[C@H](Cc4cnn(C)c4)C(=O)NC(C)(C)Cn4nc(C(F)(F)F)cc4-c4ccc(=O)n(C)c4)cc3)cnc2n1 [Example 91, (1S,2S)-N-Methyl-N-((R)-1-((2-methyl-1-(5-(1-methyl-6-oxo-1,6-dihydropyridin-3-yl)-3-(trifluoromethyl)-1H-pyrazol-1-yl)propan-2-yl)amino)-3-(1-methyl-1H-pyrazol-4-yl)-1-oxopropan-2-yl)-2-(4-(2-methylimidazo[1,2-a]pyrimidin-6-yl)phenyl)cyclopropane-1-carboxamide] | 114 | 60.9
5 | Cn1cc2cc(-c3ccc([C@H]4C[C@@]45CCN([C@H](Cc4cnn(C(F)F)c4)C(=O)NC(C)(C)Cn4nc(C(F)(F)F)cc4-c4ccc(C(N)=O)[nH]c4=O)C5=O)cc3)cnc2n1 [Example 132, 5-(1-(2-((R)-3-(1-(Difluoromethyl)-1H-pyrazol-4-yl)-2-((1R,3R)-1-(4-(2-methyl-2H-pyrazolo[3,4-b]pyridin-5-yl)phenyl)-4-oxo-5-azaspiro[2.4]heptan-5-yl)propanamido)-2-methylpropyl)-3-(trifluoromethyl)-1H-pyrazol-5-yl)-6-oxo-1,6-dihydropyridine-2-carboxamide] | 93.3 ± 0.0968 | 20.3
6 | Cc1cn2cc(-c3ccc([C@H]4C[C@@]45CCN([C@H](Cc4cnn(C(F)F)c4)C(=O)NC(C)(C)Cn4nc(C(F)(F)F)cc4-c4cnc(C6CC6)nc4)C5=O)cc3)cnc2n1 (single isomer, unassigned; isomer 1) [Example 101] | 59.6 ± 0.0693 | 58.5
7 | Cn1cc(C[C@@H](NC(=O)[C@H]2C[C@@H]2c2ccc(-c3cnc4nn(C)cc4c3)cc2)C(=O)NC(C)(C)Cn2nc(C(F)(F)F)cc2-c2cn[nH]n2)cn1 [Example 92, (1S,2S)-N—((R)-1-((1-(5-(2H-1,2,3-Triazol-4-yl)-3-(trifluoromethyl)-1H-pyrazol-1-yl)-2-methylpropan-2-yl)amino)-3-(1-methyl-1H-pyrazol-4-yl)-1-oxopropan-2-yl)-2-(4-(2-methyl-2H-pyrazolo[3,4-b]pyridin-5-yl)phenyl)cyclopropane-1-carboxamide] | 126 ± 1.93 | 47.1
8 | Cn1cc(C[C@@H](NC(=O)[C@H]2C[C@@H]2c2ccc(-c3cnc4nn(C)cc4c3)cc2)C(=O)NC(C)(C)Cn2nc(C(F)(F)F)cc2-n2ccccc2=O)cn1 [Example 20, (1S,2S)-N-((R)-1-((2-Methyl-1-(5-(2-oxopyridin-1(2H)-yl)-3-(trifluoromethyl)-1H-pyrazol-1-yl)propan-2-yl)amino)-3-(1-methyl-1H-pyrazol-4-yl)-1-oxopropan-2-yl)-2-(4-(2-methyl-2H-pyrazolo[3,4-b]pyridin-5-yl)phenyl) cyclopropane-1-carboxamide] | 126 ± 2.39 | 79.7
9 | [2H]C([2H])([2H])n1cc(C[C@H](C(=O)NC(C)(C)Cn2nc(C(F)(F)F)cc2-c2ccc(C(C)(C)O)nc2)N2CC[C@@]3(C[C@@H]3c3ccc(-c4cnc5nc(COC)cn5c4)cc3Cl)C2=O)cn1 [Example 188, (R)-2-((1S,3R)-1-(2-chloro-4-(2-(methoxymethyl)imidazo[1,2-a]pyrimidin-6-yl)phenyl)-4-oxo-5-azaspiro[2.4]heptan-5-yl)-N-(1-(5-(6-(2-hydroxypropan-2-yl)pyridin-3-yl)-3-(trifluoromethyl)-1H-pyrazol-1-yl)-2-methylpropan-2-yl)-3-(1-(methyl-d3)-1H-pyrazol-4-yl)propanamide] | 110 ± 4.51 | 0.265
10 | Cn1cc(-c2cc(C(F)(F)F)nn2CC(C)(C)NC(=O)[C@@H](Cc2cnn(C(F)F)c2)NC(=O)[C@H]2C[C@@H]2c2nc3cnn(C)c3cc2F)cc(F)c1=O [Example 157, (1S,2S)-N-((R)-3-(1-(Difluoromethyl)-1H-pyrazol-4-yl)-1-((1-(5-(5-fluoro-1-methyl-6-oxo-1,6-dihydropyridin-3-yl)-3-(trifluoromethyl)-1H-pyrazol-1-yl)-2-methylpropan-2-yl)amino)-1-oxopropan-2-yl)-2-(6-fluoro-1-methyl-1H-pyrazolo[4,3-b]pyridin-5-yl)cyclopropane-1-carboxamide] | 16.5 ± 0.234 | 108
11 | COc1ncc(-c2ccc([C@H]3C[C@@]34CCN([C@H](Cc3cnn(C(F)F)c3)C(=O)NC(C)(C)Cn3nc(C(F)(F)F)cc3-c3ccn(C5CC5)c(=O)c3)C4=O)c(C)n2)cn1 [Example 173, (R)-N-(1-(5-(1-cyclopropyl-2-oxo-1,2-dihydropyridin-4-yl)-3-(trifluoromethyl)-1H-pyrazol-1-yl)-2-methylpropan-2-yl)-3-(1-(difluoromethyl)-1H-pyrazol-4-yl)-2-((1R,3R)-1-(6-(2-methoxypyrimidin-5-yl)-2-methylpyridin-3-yl)-4-oxo-5-azaspiro[2.4]heptan-5-yl)propanamide] | 15.9 ± 0.138 | 24.6
12 | CN(C(=O)[C@H]1C[C@@H]1c1ccc(-c2cnc3nn(C)cc3c2)cc1)[C@H](Cc1cnn(C)c1)C(=O)NC(C)(C)Cn1nc(C(F)(F)F)cc1-c1cn[nH]n1 [Example 70, (1S,2S)-N-((R)-1-((1-(5-(2H-1,2,3-Triazol-4-yl)-3-(trifluoromethyl)-1H-pyrazol-1-yl)-2-methylpropan-2-yl)amino)-3-(1-methyl-1H-pyrazol-4-yl)-1-oxopropan-2-yl)-N-methyl-2-(4-(2-methyl-2H-pyrazolo [3,4-b]pyridin-5-yl)phenyl)cyclopropane-1-carboxamide] | 102 ± 2.2 | 158
13 | CC(C)(Cn1cc(C(F)(F)F)cn1)NC(=O)[C@@H](Cc1cnc2ncccn12)NC(=O)C1CC1c1ccc(-c2cnc3nn(C(F)F)cc3c2)cn1 (single isomer, unassigned; isomer 2) [Example 72] | 102 ± 4.83 | 300
14 | Cc1ncc(-c2cc(C(F)(F)F)nn2CC(C)(C)NC(=O)[C@@H](Cc2cnn(C(F)F)c2)N2CCC3(CC3c3ccc(-c4cnc5nn(C)cc5c4)nc3C)C2=O)cn1 (single isomer, unassigned; isomer 1) [Example 111] | 28 ± 0.197 | 6.75
15 | Cn1cc(C[C@H](C(=O)NC(C)(C)Cn2nc(C(F)(F)F)cc2-c2cn[nH]n2)N2CC[C@@]3(C[C@@H]3c3ccc(-c4cnc5nn(C)cc5c4)cc3)C2=O)cn1 [Example 95, (R)—N-(1-(5-(2H-1,2,3-Triazol-4-yl)-3-(trifluoromethyl)-1H-pyrazol-1-yl)-2-methylpropan-2-yl)-3-(1-methyl-1H-pyrazol-4-yl)-2-((1R,3R)-1-(4-(2-methyl-2H-pyrazolo[3,4-b]pyridin-5-yl)phenyl)-4-oxo-5-azaspiro[2.4]heptan-5-yl)propanamide] | 90 ± 2.84 | 48.1
16 | Cn1cc2cc(-c3ccc([C@H]4C[C@@]45CCN([C@H](Cc4cnn(C(F)F)c4)C(=S)NC(C)(C)Cn4nc(C(F)(F)F)cc4-c4cc(F)c(=O)n(C)c4)C5=O)c(F)c3)cnc2n1 (single isomer, unassigned; isomer 1) [Example 118] | 59.3 ± 1.52 | 4.02
